Literature values as cited in paper PMC5618157, “The Role of Disulfide Bond Replacements in Analogues of the Tarantula Toxin ProTx-II and Their Effects on Inhibition of the Voltage-Gated Sodium Ion Channel Nav1.7” (Journal of the American Chemical Society, 2017).

Experiments:
mouse model (analgesia) = conditions: injections of ProTx-II
Source text: Despite these structural studies, much remains unknown about the mechanism of action of ProTx-II on Nav1.7. […] Instead, studies into the interaction of ProTx-II and HwTx-IV with hNav1.7 proposed that both peptides interact with the domain II voltage-sensing domain (VSD), with ProTx-II also trapping the domain IV VSD in the resting configuration.[38] Mutagenesis experiments on ProTx-II by Park and co-workers,[36] and investiga ...

Nav1.7 = conditions: read-out: IC50 against Nav1.7
Source text: ProTx-II has been the subject of particular interest from researchers as a possible lead for the treatment of chronic nociceptive pain.[4] […] Nav1.7 has been implicated as a target for the treatment of chronic pain after loss-of-function mutations in the corresponding SCN9A gene left their carriers unable to feel pain, with seemingly no ...

In the case of ProTx-II, the “analgesia in a mouse model” value (mouse model (analgesia)) is listed as “failed to elicit analgesia” and the IC50 (Nav1.7) is listed as 0.3 nM.
